Laboratory results: patent publication US12030908B2, “Antimicrobial compounds, compositions, and uses thereof” (Lakewood Amedex, Inc., priority 2017, dated 2024)
Like-named read-outs stand apart in the source and are kept apart here.

Experiments:
E. coli = test: Broth microdilution MIC at incremental pH, E. coli; type: cell-based
Protocol: MIC testing is conducted using the broth (Mueller Hinton Broth) microdilution procedures relevant to each organism group as established by the Clinical and Laboratory Standards Institute (CLSI; 3-7). MIC plates are prepared in accordance with CLSI (3-7). To prepare the test plates, automated liquid handlers are used to conduct serial dilutions and liquid transfers. Automated liquid handlers utilized in this study include the Multidrop 384 (Labsystems, Helsinki, Finland) and the Biomek 2000 (Beckman Coulter, Fullerton CA). The solution is diluted to desired pH using 1 M Citric Acid or 1 M NaOH buffer. A standardized inoculum of each test organism is prepared per CLSI methods (3, 5-7) to equal a 0.5 McFarland standard in the appropriate media followed by an additional 1:20 dilution (1:10 for anaerobes).
The plates are then inoculated with 10 μL of the diluted 0.5 McFarland suspension using the Biomek 2000 from low to high drug concentration, resulting in a final concentration of approximately 5×10^5 CFU/mL per well. An un-inoculated plate is incubated for the purpose of assessing solubility of the drug in the test media. The plates are stacked 3 to 4 high, covered with a sterile lid on the top plate, and incubated for 18 to 24 hours according to CLSI. The MIC is recorded as the lowest concentration of respective compound that inhibited visible growth of the organism.

Citrobacter species = test: MIC at pH 3.5, CLSI, Mueller-Hinton broth; type: cell-based; details: 5 isolates
Protocol: (§1) Bacterial strains evaluated in this study include Escherichia coli, Klebsiella spp, Serratia marcescens, Proteus mirabilis/vulgaris, Citrobacter spp, Providencia spp, Morganella morganii, Pseudomonas aeruginosa, Staphylococcus aureus (MRSA only), and Enterococcus faecalis. Nu-8 test solutions are adjusted to pH 3.5 with citric acid, and […] is evaluated per the CLSI methods in Mueller-Hinton broth supplemented accordingly to facilitate growth of specific strains.

Enterococcus faecalis = test: MIC at pH 3.5, CLSI, Mueller-Hinton broth; type: cell-based; details: 5 isolates
Protocol: as §1

Escherichia coli = test: MIC at pH 3.5, CLSI, Mueller-Hinton broth; type: cell-based; details: 5 isolates
Protocol: as §1

Klebsiella pneumoniae = test: MIC at pH 3.5, CLSI, Mueller-Hinton broth; type: cell-based; details: 5 isolates
Protocol: as §1

Morganella morganii = test: MIC at pH 3.5, CLSI, Mueller-Hinton broth; type: cell-based; details: 5 isolates
Protocol: as §1

[1] = test system: Proteus mirabilis/vulgaris; test: MIC at pH 3.5, CLSI, Mueller-Hinton broth; type: cell-based; details: 5 isolates
Protocol: as §1

Providencia species = test: MIC at pH 3.5, CLSI, Mueller-Hinton broth; type: cell-based; details: 5 isolates
Protocol: as §1

Pseudomonas aeruginosa = test: MIC at pH 3.5, CLSI, Mueller-Hinton broth; type: cell-based; details: 20 isolates
Protocol: as §1

Serratia marcescens = test: MIC at pH 3.5, CLSI, Mueller-Hinton broth; type: cell-based; details: 5 isolates
Protocol: as §1

[2] = test system: Staphylococcus aureus (MRSA); test: MIC at pH 3.5, CLSI, Mueller-Hinton broth; type: cell-based; details: 20 isolates
Protocol: as §1

[3] = test system: methicillin resistant Staphylococcus aureus (USA300); type: in vivo, SKH-1 hairless mice; details: for decrease in CFU burden: 6 hours post challenge
Protocol: SKH-1 hairless mice have the outer layer of skin cells removed by stripping with 7 applications and removals of surgical tape. Immediately following tape stripping, mice receive a topical inoculation of methicillin resistant Staphylococcus aureus (USA300) at a targeted challenge of 6.0 log10 CFU. Four hours following challenge, mice are treated with test articles or vehicle controls, and at two hours following treatment, mice have skin harvested for CFU burden enumeration.
SKH-1 mice are obtained from Charles River Laboratories. The age of the mice on Day 0 is approximately 6-8 weeks. Only female mice are selected for the study. Animals are handled in accordance with AUP number TP-18. Mice are housed in solid-bottom micro-isolator cages on stainless steel racks. Animals are fed irradiated Teklad Global 2918 Rodent Diet and water ad libitum. Bedding is provided in the form of irradiated Teklad ⅛″ corn cob bedding 7902. Animals are maintained in a bioBubble® Clean Room which provides H.E.P.A filtered air into the bubble environment at 100 complete air changes per hour. The environment is controlled to a temperature range of 74°±5° F. and a humidity range of 30-70%. Fluorescent lighting provides illumination for 12 hours per day. Mice are acclimated for a minimum of 24 hours prior to study start. The animals are observed for general health and acceptability for use in this study. Only animals deemed healthy are included in this study.
On Day 0 immediately prior to infection, each mouse is anesthetized using isoflurane and the dorsal area receives 7 applications and removals of Nexcare™ (3M) surgical tape in order to remove the outermost epidermal layer of skin.
The challenge microorganism is prepared. Methicillin resistant Staphylococcus aureus (USA300) is grown overnight at 37° C. at ambient atmosphere trypticase soy agar plates supplemented with 5% sheep blood cells. The culture is aseptically swabbed and transferred to tubes sterile water until optical density reaches approximately 0.75 at 600 nm. The cultures are diluted to provide challenge inoculate of 6.0 log10 CFU per mouse in a volume of 100 μL. Inoculum count is estimated before inoculation by optical density and confirmed after inoculation by dilution and back count.
On Day 0 at 0 hours, animals are anesthetized using isoflurane, brought to a surgical plane, and infected with bacteria via topical application, spread in the tape stripped area of approximately 0.75″×0.75″. Challenge is allowed to dry slightly before mice are brought out of anesthesia.
The test articles are prepared in a manner to minimize endotoxin and bacterial contamination. A 10% (100 mg/mL) solution of Nu-8 is prepared in 0.9% sterile saline. A 20% Nu-8 solution for 50/50 mixture in a hydrogel vehicle (for 10% final Nu-8 concentration) is made using sterile water. Citric acid is used to adjust the solutions to pH 3.5. The test articles are stored at 4° C.
A 0.9% sterile saline adjusted to pH 3.5 with citric acid is prepared as a vehicle/negative control and stored at room temperature. A hydrogel vehicle adjusted to pH 3.5 with citric acid is prepared as another vehicle/negative control. The hydrogel vehicle is prepared by mixing equal volumes of hydrogel and 0.9% sterile saline with final pH of the mixture adjusted to pH 3.5.
At exactly four hours following challenge, mice in Groups 2-5 receive a topical application of Nu-8 (in either saline or hydrogel vehicle), saline vehicle, or gel vehicle, in a volume of […] spread on the dorsal area previously stripped and inoculated with bacteria. […] Mice are housed individually following treatment until harvest time.
Mice are observed at least twice daily during the study period and are randomly assigned to experimental groups as shown in TABLE 10. At the time indicated in TABLE 10, mice are humanely euthanized via CO2 overexposure. Mice are harvested at 6 hours post challenge (2 hours post-treatment). […]

CCCCOP(=O)(O)OC[C@H]1O[C@@H](n2ccc(N)nc2=O)C[C@@H]1OP(=O)(O)OCCCC [Nu-8, sodium ((2R,3S,5R)-5-(4-amino-2-oxopyrimidin-1(2H)-yl)-3-((butoxyoxidophosphor-yl)oxy)tetrahydrofuran-2-yl)methyl butyl phosphate]
MIC (E. coli; pH 1): 9.8 mg/mL
MIC (E. coli; pH 3): 37.5 mg/mL
MIC (E. coli; pH 4): 75 mg/mL
MIC (E. coli; pH 5): >75 mg/mL
MIC (E. coli; pH 7): >75 mg/mL
Nu-8 MIC (mg/mL) at pH 3.5 (Citrobacter species): 18.75-37.5 mg/mL
Nu-8 MIC (mg/mL) at pH 3.5 (Enterococcus faecalis): 4.69-18.75 mg/mL
Nu-8 MIC (mg/mL) at pH 3.5 (Escherichia coli): 37.5 mg/mL
Nu-8 MIC (mg/mL) at pH 3.5 (Klebsiella pneumoniae): 37.5-75 mg/mL
Nu-8 MIC (mg/mL) at pH 3.5 (Morganella morganii): 18.75 mg/mL
Nu-8 MIC (mg/mL) at pH 3.5 [1]: 4.69-18.75 mg/mL
Nu-8 MIC (mg/mL) at pH 3.5 (Providencia species): 9.38-37.5 mg/mL
MIC50 at pH 3.5 (Pseudomonas aeruginosa): 18.75 mg/mL
MIC90 at pH 3.5 (Pseudomonas aeruginosa): 18.75 mg/mL
Nu-8 MIC (mg/mL) at pH 3.5 (Pseudomonas aeruginosa; MIC range): 9.38-18.75 mg/mL
Nu-8 MIC (mg/mL) at pH 3.5 (Serratia marcescens): 37.5-75 mg/mL
MIC50 at pH 3.5 [2]: 18.75 mg/mL
MIC90 at pH 3.5 [2]: 37.5 mg/mL
Nu-8 MIC (mg/mL) at pH 3.5 ([2]; MIC range): 9.38-37.5 mg/mL
decrease in CFU burden ([3]; 10% Nu-8 in hydrogel pH 3.5, topical): ~1.0 log10 reduction
decrease in CFU burden ([3]; 10% Nu-8 in saline pH 3.5, topical): ~1.0 log10 reduction
percentage reduction compared to the controls (FIG. 3) ([3]; Nu-8 gel): 87%
colony forming units (FIG. 1) ([3]; Nu-8 hydrogel, two hours post treatment): approximately 40,000 CFU per square millimeter
reduction in bacteria vs saline and gel controls ([3]; Nu-8 in saline or hydrogel, two hours post treatment): ten-fold
colony forming units (FIG. 1) ([3]; Nu-8 in saline, two hours post treatment): approximately 30,000 CFU per square millimeter
percentage reduction compared to the controls (FIG. 3) ([3]; Nu-8 saline): 90%
acute adverse events associated with the treatments ([3]; topical, 10% Nu-8 in saline or hydrogel): None of the study subjects displayed any acute adverse events
